Some results are limits rather than exact numbers.

This is an account of results in patent US5194437A, “1,4-disubstituted piperazines” (Adir et Compagnie, priority 1990, dated 1993).

Test [1] addresses T1, 5-HT1A receptors (Rattus norvegicus, UniProt P19327).
T1 sequence (P19327 1-422): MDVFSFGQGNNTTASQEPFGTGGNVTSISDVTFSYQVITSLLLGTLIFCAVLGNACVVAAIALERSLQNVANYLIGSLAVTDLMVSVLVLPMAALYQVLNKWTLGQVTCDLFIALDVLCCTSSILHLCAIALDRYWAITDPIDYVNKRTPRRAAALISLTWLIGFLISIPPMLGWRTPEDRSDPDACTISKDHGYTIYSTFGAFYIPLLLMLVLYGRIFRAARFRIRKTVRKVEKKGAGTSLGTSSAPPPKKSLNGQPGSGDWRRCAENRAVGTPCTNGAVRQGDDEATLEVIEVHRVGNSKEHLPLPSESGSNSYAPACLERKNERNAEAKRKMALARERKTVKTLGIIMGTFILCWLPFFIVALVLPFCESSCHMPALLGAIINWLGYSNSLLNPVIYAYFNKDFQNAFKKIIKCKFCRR
Kind of test: Spontaneous tail flick test (STF), agonist and antagonist activity. The class given is in vivo, male Wistar rats. More on the design: from tissue; host or cells: whole animal, male Wistar rat (in vivo). Conditions: for Spontaneous tail flicks M.E.D.: agonist: induction of STF, s.c., minimum effective dose; for ED50: rat, sc, 1 h, antagonist: inhibition of STF induced by 8-OH-DPAT 0.63 mg/kg s.c., compound s.c. 60 min before test, read-out: Spontaneous tail flicks ID50 (95% C.L.). The procedure:
(§1) The tests were carried out on male Wistar rats weighing from 200 to 220 g which had free access to food and drinking water, in standard cages.
(§2) The animals are housed individually for the hypothermia, corticosterone secretion and flat body posture tests, and in groups of three for the tail flick test.
(§3) The laboratory temperature is kept at 21°±1° C., with 60 ±5% humidity. The rats are subjected to a light/dark cycle of 12 hours/12 hours (the light cycle commencing at 7.30 a.m.).
(§4) a/ General procedure for tests of agonist and antagonist activities on 5-HT1A receptors.
(§5) The test compounds were administered subcutaneously (s.c.) 60 minutes before the start of the test, that is to say 30 minutes before the vehicle (agonist responses) or 8-OH-DPAT (antagonist responses).
(§6) In all the tests, the solvent is used in parallel as the control. The animals were allowed to rest in their cages during the time between the injections and evaluation.
(§7) For the agonist studies, the solvent was administered at a dose of 1 ml/kg s.c. 30 minutes before the start of the test. For the antagonist studies, doses of 8-OH-DPAT inducing sub-maximal responses were chosen, i.e. doses of 0.63, 0.16, 0.16 and 0.16 mg/kg s.c. for the tail flick test, the flat body posture test, the corticosterone secretion test and the hypothermia test, respectively.
Tail flicks were determined in animals restrained in horizontal, opaque plastics cylinders, the animals' tails hanging freely over the edge of the laboratory bench. After a 5-minute adaptation period, the number of movements made in 5 minutes is recorded. One STF is defined as the raising of the tail to a level higher than the level of the body axis [Millan M. J. et al., J. Pharmacol. Exp. Ther., 256, 973-982 (1990)].
(§8) In general, after variance analysis, the results are subjected to Dunnett's test. Results are regarded as significant if p<0.05.
(§9) The doses of the test compounds are all expressed in terms of the base. Unless otherwise mentioned, all the compounds were dissolved in sterile water (to which a few drops of lactic acid are added, if necessary) and administered at a volume of 1 ml/kg s.c..
Background: Hot-plate and tail-flick tests time the reaction to a heat stimulus.

In test [2] the target is T1, 5-HT1A receptors. Put plainly: Flat body posture (FBP), agonist response and antagonism of 8-OH-DPAT. The class given is in vivo, male Wistar rats. Details: from tissue; host or cells: whole animal, male Wistar rat (in vivo). As to conditions: sc. The procedure: as §1, §2, §3, §4, §5, §6, §7
(§10) The same animals were employed for the evaluation of the effect of the test compounds on the FBP and for the determination of the plasma levels of CS. All the tests were carried out in the morning between 10.30 and 12.30, i.e. when the cicardian levels of CS are at their lowest.
25 minutes after the treatment (i.e. 5 minutes before decapitation), the animals are observed in their cages and the presence or absence of FBP is noted.
(§11) The presence of FBP is defined by a characteristic posture of the animal. The animal is then in a position of ventral decubitus with the hind limbs clearly in extension. 5 minutes after observation of FBP, the animals are decapitated and the trunk blood is collected in chilled tubes containing 50 μl of a 10% EDTA solution. After centrifugation at 4000 rpm, the plasma is removed and stored at -30° C. until assay.
as §8
For the dose-response for induction and inhibition of FBP, the effective doses 50 (ED50) (doses at which 50% of the animals show a response) were calculated by the method of Litchfield and Wilcoxon.
as §9

The target in test [3] is T1, 5-HT1A receptors. Kind of test: Corticosterone secretion (CS), plasma, agonist and antagonist activity. The class given is in vivo, male Wistar rats. More on the design: from tissue; host or cells: whole animal, male Wistar rat (in vivo). Conditions: for Corticosterone secretion M.E.D.: agonist: induction of CS, s.c., minimum effective dose; for ED50: rat, sc, 1 h, antagonist: inhibition of CS induced by 8-OH-DPAT 0.16 mg/kg s.c., compound s.c. 60 min before test, read-out: Corticosterone secretion ID50 (95% C.L.). The procedure: as §1, §2, §3, §4, §5, §6, §7, §10, §11
CS was determined using a radio-competitive assay for a CS-binding protein in plasma: transcortin. The latter is obtained from monkey serum. Separation of the CS-transcortin complexes from free CS was effected by means of a solution of dextran and active charcoal. The detection limit was 50 pg/tube. Intra- and inter-assay variations were 5 and 15%, respectively [cf. Rivet J. M. et al., Eur. J. Pharmacol., 183, 634-635 (1990)].
Since the base levels of CS in plasma are never zero, the following formula was used to calculate the percentage inhibition of plasmatic CS induced by 8-OH-DPAT: [formula]
as §8, §9

Test [4] deals with T1, 5-HT1A receptors. Put plainly: Body temperature (hypothermia), agonist and antagonist activity. The class given is in vivo, male Wistar rats. Details: from tissue; host or cells: whole animal, male Wistar rat (in vivo). Conditions: for Hypothermia M.E.D.: agonist: induction of hypothermia, s.c., minimum effective dose; for ED50: rat, sc, 1 h, antagonist: inhibition of hypothermia induced by 8-OH-DPAT 0.16 mg/kg s.c., compound s.c. 60 min before test, read-out: Hypothermia ID50 (95% C.L.). The procedure:
as §1, §2, §3, §4, §5, §6, §7
The rats are immobilised and a lubricated digital thermometer (Thermistoprobe from Testotherm, Basle, Switzerland) is inserted into the rectum to a depth of 5 cm. 30 seconds after insertion, the temperature is read off a digital scale. The percentage inhibition is calculated with the aid of the formula mentioned above.
as §8, §9

Test [5] has as its target T1, 5-HT1A receptors. Kind of test: In vitro binding test, 5-HT1A receptors, [3]H-8-OH-DPAT, rat hippocampus membranes. More on the design: Hippocampus from the brains of decapitated rats; from tissue; host or cells: rat hippocampus membranes (male Wistar); species or system rat (male Wistar). Conditions: for Affinity (pKi): hot ligand [3]H-8-OH-DPAT 0.4 nM, rat hippocampus membranes, 25° C., 30 minutes.
Description: Hippocampus from the brains of decapitated rats was immediately frozen on dry ice and then stored at -80° C. until preparation of membranes. The tissue was homogenised at 4° C. in the appropriate buffer using a Polytron (Brinkman Instruments - Lucerne - Switzerland) and centrifuged at 20,000 rpm.
Incubation was carried out at 25° C. for 30 minutes. Non-specific binding was defined by 10 μM of 5-HT. The tests were terminated by rapid filtration by means of a Brandel harvester over glass-fibre filters pretreated with 0.1% polyethyleneimine.
The inhibitory concentration 50 values (IC50) were determined according to method 8 of Tallarida R. J. and Murray R. B., Manual of pharmacological calculations with computer programs, Springer Verlag, N.Y. (1987).
The pKi was calculated according to the formula [formula] where [L] is the concentration of the hot ligand ([3]H-8-OH-DPAT, 0.4 nM) and Kd is the apparent dissociation constant determined from saturation experiments.
The test substances were dissolved in the incubation buffer.

The target of test [6] is T1, 5-HT1A receptors. Kind of test: Overall agonist/antagonist behaviour at 5-HT1A receptors (in vivo tests). Details: from tissue; host or cells: whole animal, male Wistar rat (in vivo); species or system male Wistar rats. As to conditions: conclusion from Tables 1 and 2. The procedure:
as §4, §5, §6, §7

The mark [7] stands for this setting: 1 h, read-out: Flat body posture ED50 (95% C.L.), antagonism of 8-OH-DPAT, inhibition of FBP, 8-OH-DPAT 0.16 mg/kg s.c., compound s.c. 60 min before test.
The mark [8] stands for this setting: induction of FBP, s.c., dose at which 50% of the animals show a response, read-out: Flat body posture ED50 (95% C.L.), agonist response.

Regarding `c1ccc2c(c1)CC(N1CCN(c3cccc4c3OCCO4)CC1)C2` [Example 7, 4-(benzodioxan-5-yl)-1-(indan-2-yl)-piperazine], the “Spontaneous tail flicks M.E.D.” value in test [1] is recorded as over 10.0 mg/kg. Moreover, the ED50 in test [1] was 0.74 mg/kg; in test [2] (setting [7]), 0.52 mg/kg; in test [2] (setting [8]), over 10 mg/kg; in test [3], 2.5 mg/kg; in test [4], 1.6 mg/kg. Besides, in test [3], the “Corticosterone secretion M.E.D.” value is reported as over 10.0 mg/kg. Also, the “Hypothermia M.E.D.” value in test [4] was determined as 20.0 mg/kg. Also, in test [5], the “Affinity (pKi)” value came to 8.75.

As for `c1ccc2c(c1)CC(N1CCN(c3cccc4c3OCCCO4)CC1)C2` [Example 9, 4-[benzo(1,5)dioxepin-6-yl]-1-(indan-2-yl)-piperazine], the “Spontaneous tail flicks M.E.D.” value in test [1] is over 10.0 mg/kg. In addition, the ED50 in test [1] is 1.59 mg/kg; in test [2] (setting [7]), under 2.5 mg/kg; in test [2] (setting [8]) it was over 2.5 mg/kg; in test [3], over 2.5 mg/kg; in test [4] it was 4.36 mg/kg. In addition, the “Corticosterone secretion M.E.D.” value in test [3] is given as over 2.5 mg/kg. Also, the “Hypothermia M.E.D.” value in test [4] was determined as 5.0 mg/kg. In addition, in test [5], the “Affinity (pKi)” value was 8.42.

As for `c1ccc2c(c1)CC(CN1CCN(c3cccc4c3OCCO4)CC1)C2` [Example 14, 4-(benzodioxan-5-yl)-1-[(indan-2-yl)-methyl]-piperazine], the ED50 is 0.19 mg/kg in test [1]; at least 2.5 mg/kg in test [2] (setting [7]); over 2.5 mg/kg in test [2] (setting [8]); over 2.5 mg/kg in test [3]; under 2.5 mg/kg in test [4]. The “Corticosterone secretion M.E.D.” value in test [3] is over 2.5 mg/kg. In addition, the “Hypothermia M.E.D.” value in test [4] is recorded as over 10.0 mg/kg. The Ki in test [5] was 3.39 nM.

Consider `c1ccc2c(c1)CC(CCN1CCN(c3cccc4c3OCCO4)CC1)C2` [Example 20, 4-(benzodioxan-5-yl)-1-[2-(indan-2-yl)-ethyl]-piperazine], for which the ED50 was 0.18 mg/kg in test [1]; under 2.5 mg/kg in test [2] (setting [7]); over 2.5 mg/kg in test [2] (setting [8]); under 2.5 mg/kg in test [3]; 0.58 mg/kg in test [4]. Besides, the “Corticosterone secretion M.E.D.” value in test [3] was over 2.5 mg/kg. For the same compound, the “Hypothermia M.E.D.” value in test [4] amounted to 10.0 mg/kg. The “Affinity (pKi)” value in test [5] came to 9.18.

Regarding `O=C1CC2(CCCC2)CC(=O)N1CCCCN1CCN(c2ncccn2)CC1` [buspirone, reference compound], the “Spontaneous tail flicks M.E.D.” value in test [1] was over 10.0 mg/kg. Moreover, the ED50 in test [1] is 3.71 mg/kg; in test [2] (setting [7]) it was over 10 mg/kg; in test [2] (setting [8]), 7.4 mg/kg; in test [3], over 10 mg/kg. For the same compound, the “Corticosterone secretion M.E.D.” value in test [3] is given as over 2.5 mg/kg. For the same compound, the “Hypothermia M.E.D.” value in test [4] was 2.5 mg/kg. In test [6], the “Behaviour towards 5-HT1A receptors” value is given as “agonist behaviour”.

For orientation: Ki means a measure of affinity in units of concentration, obtained from inhibition or displacement. Low values mean tighter binding, high ones weaker binding.
